Data published in a melting point compilation (Tetko et al.; mined from patent text by program, amines drawn as free bases though some values may be those of a salt).

| melting point | Compound |
| --- | --- |
| 197 °C | CCc1cccc(C)c1CNc1nc(C(=O)N2CCCC2)cn2c(C)c(C)nc12 |
| 58 to 63 °C | COC(=O)c1ccccc1Oc1nc(Oc2ccccc2C(=O)OC)nc(Oc2ccccc2C(=O)OC)n1 |
| 64 to 66 °C | CCCN(CCC)S(=O)(=O)c1ccc(C(CC2CCCC2)C(=O)Nc2nc3ccc(OC)nc3s2)cc1 (stereo not drawn) |
| 315 to 316 °C | O=C(O)c1cn(C2CC2)c2c(F)c(N3CC(n4ccnn4)C3)c(F)cc2c1=O |
| 132 to 135 °C | O=C(O)c1ccc(OCCc2c(CCNS(=O)(=O)Cc3ccccc3Cl)n(C(c3ccccc3)c3ccccc3)c3ccc(Cl)cc23)cc1F |
| 126 to 129 °C | CCOC(=O)Cc1ccc(-c2nc(COc3ccc(COc4nn(-c5ccccc5)cc4/C=C/c4coc(C(C)(C)C)n4)cc3OC)c(C)o2)cc1 |
| 106 to 107 °C | N#Cc1c(OCC#CI)nsc1SC(F)F |
| 173 °C | Cc1ccc(-c2ccc(C(=O)Nc3ccc4cc(CN5CCCC5)cnc4c3)c(F)c2)cc1 |
| 108 to 109 °C | CC(C)(C)OC(=O)N[C@H](C(=O)Br)c1ccccc1 |
| 237 to 239 °C | O=C1NC(=O)C(c2ccccc2)(c2ccc(Br)cc2)N1 (stereo not drawn) |
| 57 to 59 °C | CCCCCCCCCCCCCCCCCCOc1cc(N)cc(OCCCCC(=O)OC)c1 |
| 242 to 245 °C | CC1(C)NC(=O)N(CC(CS(=O)(=O)c2ccc(-c3ccc(Cl)cc3)cc2)C(=O)O)C1=O (stereo not drawn) |
| 94 °C | O=[N+]([O-])c1ccc(Oc2ccc(C(F)(F)F)cn2)cc1NCP(=O)(O)O |
| 200 to 201 °C | CC(=O)C1=CCC2C3CCC4=CC(=O)CCC4(C)C3=CCC12C (stereo not drawn) |
| 237 to 239 °C | Cc1cc(CNc2cccc3c2CN(C2CCC(=O)NC2=O)C3=O)oc1C (stereo not drawn) |
| 145 to 147 °C | N#Cc1ccc(CNC(=O)c2cccc(C#CCn3ccnn3)c2)cc1 |
| 106 to 108 °C | CCOc1c(C)c(N2CCN(c3ccc(OC)cc3)CC2)c(C)c2c1OC(C)C2 (stereo not drawn) |
| 110 to 112 °C | O=S(=O)(Nc1cccc(F)c1)c1cc(S(=O)(=O)Nc2cccc(F)c2)c2cc(O)ccc2c1 |
| 171 to 173 °C | COC(=O)CCCC(=O)Nc1ccc(-c2ccc(C#N)cc2)cc1 |
| 137 °C | COc1ccc(CCC(=O)Nc2ccccc2C(=O)O)cc1OC |
| 48 to 51 °C | CN(C)C(=O)N(C)c1nnc(SCc2ccccc2)s1 |
| 75 to 77 °C | Cc1cccc(-c2cc(Cl)c3ccccc3n2)c1 |
| 320 to 324 °C | CNC1=Nc2ccc(C3=NNC(=O)CC3)cc2C1(C)C |

| melting point | Compound |
| --- | --- |
| 110 to 111 °C | C=CCOc1ccc(Br)cc1C(C)=NO |
| 220 to 222 °C | NNc1ccnc(-c2ccc([N+](=O)[O-])o2)n1 |
| 84 to 85 °C | O=C(O)CCCCCCCCCCCNC(=O)OCc1ccccc1 |
| 270 to 272 °C | CCS(=O)(=O)c1ccc2c3c(cccc13)C(=O)N2 |
| 277 to 278 °C | Cc1cccc(C)c1CNc1cc(C(=O)NN)cc2c1nc(C)n2C |
| 196 to 197 °C | N#CN=C1CCCCN1C1=CC(CF)(CF)Oc2ccc(C(F)(F)C(F)(F)F)cc21 |
| 150 to 152 °C | Cc1cc(CNC(=O)c2ccnc(N3CCN(Cc4ccc(F)cc4)C3=O)c2)nn1C |
| 88 to 89 °C | CN(C)S(=O)(=O)Oc1ccccc1S(N)(=O)=O |
| 130 to 132 °C | COc1ccc2c(Cc3c(Cl)cncc3Cl)nnc(Oc3ccccc3)c2c1 |
| 142 to 144 °C | CC(=O)Nc1cccc(NC(=O)Cc2ccc(-n3c(-c4cccnc4N)nc4ccc(-c5cccnc5)nc43)cc2)c1 |
| 150 to 152 °C | CON(Cc1ccc(C)cc1)C(=O)C1=C(O)C(=O)N(C)C1 |
| > 300 °C | CCn1ncc2c1ncc1c(=O)[nH]c3nc(S(C)=O)nn3c12 (stereo not drawn) |
| 60 °C | CCCC1CCC(/C(F)=C(\F)c2ccc(OCC)c(F)c2F)CC1 (stereo not drawn) |
| 260 to 265 °C | CCOc1ccc2nc3ccc(C(=O)O)cn3c(=O)c2c1 |
| 157 to 159 °C | Fc1ccc(CNc2nc(OCc3ccccc3)nc(OCc3ccccc3)n2)cc1 |
| 199 to 200 °C | Nc1cc(C(=O)O)cc(S)c1Oc1ccccc1 |
| 249 to 251 °C | O=C(Nc1cccc2c(Sc3ncc[nH]3)c(Br)cnc12)c1c(Cl)cccc1Cl |
| 169 to 172 °C | CS(=O)(=O)OCC1CN(c2ccc3ccccc3c2)C(=O)O1 (stereo not drawn) |
| 169 to 171 °C | NNc1ccc(S(N)(=O)=O)cc1 |
| 124 to 127 °C | Oc1cc(Oc2ncc(C(F)(F)F)cc2Cl)ccc1Br |
| 148 to 149 °C | O=C(O)CCCc1ccc(-c2ccccc2Br)cc1 |
| 140 to 141 °C | COc1cc(C(=O)c2cnc(Cl)nc2Cl)cc(OC)c1OC |
| 201 to 202 °C | Cc1ccc(-c2c(C#N)n(C)c(=O)c3cnccc23)cc1 |

| melting point | Compound |
| --- | --- |
| 131 to 133 °C | O=C(OCc1ccc(-c2ccc(N3C[C@H](Cn4ccnn4)OC3=O)cc2F)cn1)N1CCOCC1 |
| 98 to 99 °C | O=c1c(Cl)c(Cl)cnn1CC=Cc1ccccc1 |
| 202 to 204 °C | C1=C(/C=C/c2cccs2)CCN(Cc2c[nH]c3ncccc23)C1 |
| 212 to 213 °C | FC(F)(F)CSc1nc(-c2ccc(Cl)cc2)c(-c2ccc(Cl)cc2)[nH]1 |
| 253 °C | O=C(Nc1cccc(S(=O)(=O)N2CCOCC2)c1)c1cnn2c(C(F)F)cc(-c3ccc(Cl)cc3)nc12 |
| 111 °C | FC(F)(F)c1cc(Oc2cc(Oc3ccc(Cl)c(C(F)(F)F)c3)ncn2)ccc1Cl |
| 217 to 219 °C | COCCc1sc2ncnc(N)c2c1-c1ccc(N(C(N)=O)c2ccccc2C)cc1 |
| 177 to 179 °C | O=C(O)C(CCCN1C(=O)c2ccccc2S1(=O)=O)NS(=O)(=O)c1ccc(-c2ccc(Cl)cc2)cc1 (stereo not drawn) |
| 139 to 141 °C | Cn1c(C(F)(F)F)cc(=O)n(-c2ccc3snc(C4(O)N=C(c5ccccc5)NC4=O)c3c2)c1=O (stereo not drawn) |
| 155 to 157 °C | CCOC(=O)c1cnc2onc(C)c2c1N(C)S(=O)(=O)c1ccc(Oc2ccncc2)cc1 |
| 90 °C | S=C(N1CCCCC1)C1(c2ccccn2)CCCS1 (stereo not drawn) |
| 84 to 86 °C | COc1ccc(OC2OC(COCc3ccccc3)C(OCc3ccccc3)C(O)C2OCc2ccccc2)cc1 (stereo not drawn) |
| > 200 °C | O=C(Nc1cccnc1)N1CCc2cc(I)c(Cl)cc21 |
| 210 to 211 °C | CC(C)c1cccc(C(C)C)c1NC(=O)C(C)C1c2ccccc2Oc2ccccc21 (stereo not drawn) |
| 295 to 296 °C | Cc1[nH]c(-c2ccccc2)c2nc[nH]c(=O)c12 |
| 96 to 98 °C | COc1ccc(COCC(O)Cn2ccnc2)cc1 (stereo not drawn) |
| 231 to 232 °C | O=C(O)c1cc(-n2c(-c3ccc(Br)cc3)cc3c2CCCC3)ccc1O |
| 56.5 to 58.5 °C | CC(C)CSc1ccc(N)c([N+](=O)[O-])c1 |
| 184 to 185 °C | CN1Cc2ccccc2[C@H]2c3cccc4c3[C@H](CN4)C[C@@H]21 (relative stereo) |
| 68 to 69 °C | COC(=O)C[C@H](O)C[C@H](O)C=Cc1c(-c2ccc(F)cc2)c(-c2ccccc2)c(C(=O)NCc2ccc(F)cc2)n1C(C)C |
| 193 °C | N#Cc1cc(C(N)=O)ccc1Cl |
| 157 to 159 °C | COC(=O)c1ccc2oc(-c3ccc(OC)cc3)cc2c1 |
| 216 to 217 °C | Cc1nnc(-c2ccnc(N)c2)o1 |

| melting point | Compound |
| --- | --- |
| 112 to 114 °C | Cc1cc(-c2cc(C(F)(F)F)nn2-c2ccc(S(C)(=O)=O)c(F)c2)ccc1-c1cscn1 |
| > 300 °C | CCCCc1cc(-c2nnn[nH]2)ncc1C(=O)O |
| 136 °C | CC(C)N(O)C(=O)Nc1ccc(S(C)=O)cc1 (stereo not drawn) |
| 69.1 to 76.1 °C | CC(=O)c1c2c(cc3c1CCC3)CCC2 |
| 298 to 300 °C | Cc1ccc(-c2ncnc(-c3cccc(C(=O)O)c3)n2)cc1 |
| 94 to 97 °C | CON1CCC2(CC1)C(=O)C(c1c(C)ccc(Cl)c1C)([N+](=O)[O-])C(=O)N2OC (stereo not drawn) |
| 170 to 172 °C | CN(C)Cc1nc(N)nc(N)c1-c1ccc(Cl)cc1Cl |
| 46 to 48 °C | CC1CN(C2=Nc3ccccc3Oc3ccccc32)C(C)CN1 (stereo not drawn) |
| 137 to 139 °C | COc1cccc(-c2cc(C3CNC(=O)C3)ccc2OC)c1 (stereo not drawn) |
| 100 to 102 °C | O=C(O)Cc1ccn(-c2ccc(F)cc2)c1 |
| 164 to 166 °C | NC(=O)C1CCc2c(C(=O)c3ccccc3)cccc21 (stereo not drawn) |
| 236 to 238 °C | CCOC1=C(C#N)S(=O)(=O)N=C1N |
| 207 to 210 °C | O=S(=O)(c1ccc(-n2cccc2)cc1)c1cccc2cnccc12 |
| 159 to 161 °C | O=C(O)C(=O)CC(=O)c1cccn1Cc1cccc(Cl)c1 |
| 96 to 97 °C | CCCCCS(=O)(=O)NC(=O)CCCc1ccc(OCCOC)cc1Oc1ncc(C(F)(F)F)cc1Cl |
| 152 to 157 °C | COc1ccc(C=CC(=O)C(CCC(=O)O)(Cc2ccccc2Cl)c2ccccc2)cc1 (stereo not drawn) |
| 191 to 195 °C | CC(C)(C)NC(=O)c1cccc(C(=O)O)c1O |
| 138 °C | CCN(CC)CCOc1ccc(Nc2ncc3c(n2)N(C)C(=O)N(c2cc(Cl)ccc2Cl)C3)cc1 |
| 71 to 73 °C | Clc1ccc2sc(=Nc3ccccc3)sc2c1 |
| 150 to 151 °C | CN(C)CC1CCN(c2nc(N3CCCCC3)c3ncnc(N(C)Cc4cccc5ccccc45)c3n2)CC1 |
| 244 °C | O=C(O)Cc1cc(C(=O)C=Cc2ccc(Cl)cc2)ccc1O |
| 206 to 208 °C | CC(=O)NCCc1ccc(C=CC(=O)O)cc1 |

| Compound | melting point |
| --- | --- |
| COc1cc2c(c(OC)c1OC)-c1ccc(OC(=O)N3CCC(N4CCCCC4)CC3)cc1C(NC(C)=O)CC2 (stereo not drawn) | 168 to 175 °C |
| COc1cc(C=C(C)[N+](=O)[O-])c(OC)c(C)c1C | 76 to 81 °C |
| O=c1[nH]c2cc(Cl)ccc2n1C1CCNCC1 | 200 to 206 °C |
| CC(C)CCN1C(=O)C(NC(=O)Nc2cccc(N(C)C)c2)C(=O)N(CC23CC4CC(CC(C4)C2)C3)c2ccccc21 (stereo not drawn) | 226 to 227 °C |
| CN(C)C1(Cc2ccccc2)CC=C(c2c[nH]c3ncccc23)CC1 (stereo not drawn) | 222 to 225 °C |
| COc1cc(C(=O)O)c(O)c2c1C(C)(C)CCC2(C)C | 213 °C |
| CC(=O)c1ccc2c(c1)C(c1ccccc1F)=NC(C)C(=O)N2C (stereo not drawn) | 65 °C |
